Literature values, collected in US20230218796A1, “Tissue adhesive for use in a treatment method in which an ophthalmological implant is implanted in a human or animal patient, and ophthalmological implantation system” (priority 2020, published 2023).

How the values were obtained:
[1] = test system: epithelial cell layer of the cornea; details: free thapsigargin released into the aqueous humor in the anterior chamber
[2] = test system: cell growth in the capsular bag

For `C/C=C(/C)C(=O)O[C@H]1C(C)=C2[C@H]([C@@H]1OC(=O)CCCCCCC)[C@@](C)(OC(C)=O)C[C@H](OC(=O)CCC)[C@@]1(O)[C@H]2OC(=O)[C@@]1(C)O` [thapsigargin], the “damage to the cornea on free release into the aqueous humor in the anterior chamber” value [1] is listed as “can damage the epithelial cell layer of the cornea”, the “higher concentration that induces cell death” value ([2]; higher concentrations) is listed as 10 to 100 µM and the “low concentration that greatly reduces cell growth in the capsular bag” value ([2]; low concentrations) is listed as 100 nM.
